US12606568B2, “SMARCA degraders and uses thereof” (Kymera Therapeutics, Inc., priority 2020, dated 2026)

How the values were obtained:
Assay type in all cases: cell-based
SMARCA4 = biological target: T1, SMARCA4 (Homo sapiens, UniProt P51532); experiment: SMARCA4 Western blot MV4-11 degradation; conditions: for SMARCA4 MSD MV411 degradation 24 h: average Dmax % / DC50: MV4-11 cells; for DC50 / Dmax: 24 h; for DC50: read-out: SMARCA4 MSD MV411 degradation 24 h: Mean external-Abs DC50; for Dmax: MV4-11, MV4-11 cells, read-out: SMARCA4 MSD MV411 degradation 24 h: average Dmax %
T1 construct: SMARCA2 and SMARCA4 protein degradation in MV4-11 cells; endogenous in cells; host or cells: MV4-11
T1 sequence (P51532 whole entry): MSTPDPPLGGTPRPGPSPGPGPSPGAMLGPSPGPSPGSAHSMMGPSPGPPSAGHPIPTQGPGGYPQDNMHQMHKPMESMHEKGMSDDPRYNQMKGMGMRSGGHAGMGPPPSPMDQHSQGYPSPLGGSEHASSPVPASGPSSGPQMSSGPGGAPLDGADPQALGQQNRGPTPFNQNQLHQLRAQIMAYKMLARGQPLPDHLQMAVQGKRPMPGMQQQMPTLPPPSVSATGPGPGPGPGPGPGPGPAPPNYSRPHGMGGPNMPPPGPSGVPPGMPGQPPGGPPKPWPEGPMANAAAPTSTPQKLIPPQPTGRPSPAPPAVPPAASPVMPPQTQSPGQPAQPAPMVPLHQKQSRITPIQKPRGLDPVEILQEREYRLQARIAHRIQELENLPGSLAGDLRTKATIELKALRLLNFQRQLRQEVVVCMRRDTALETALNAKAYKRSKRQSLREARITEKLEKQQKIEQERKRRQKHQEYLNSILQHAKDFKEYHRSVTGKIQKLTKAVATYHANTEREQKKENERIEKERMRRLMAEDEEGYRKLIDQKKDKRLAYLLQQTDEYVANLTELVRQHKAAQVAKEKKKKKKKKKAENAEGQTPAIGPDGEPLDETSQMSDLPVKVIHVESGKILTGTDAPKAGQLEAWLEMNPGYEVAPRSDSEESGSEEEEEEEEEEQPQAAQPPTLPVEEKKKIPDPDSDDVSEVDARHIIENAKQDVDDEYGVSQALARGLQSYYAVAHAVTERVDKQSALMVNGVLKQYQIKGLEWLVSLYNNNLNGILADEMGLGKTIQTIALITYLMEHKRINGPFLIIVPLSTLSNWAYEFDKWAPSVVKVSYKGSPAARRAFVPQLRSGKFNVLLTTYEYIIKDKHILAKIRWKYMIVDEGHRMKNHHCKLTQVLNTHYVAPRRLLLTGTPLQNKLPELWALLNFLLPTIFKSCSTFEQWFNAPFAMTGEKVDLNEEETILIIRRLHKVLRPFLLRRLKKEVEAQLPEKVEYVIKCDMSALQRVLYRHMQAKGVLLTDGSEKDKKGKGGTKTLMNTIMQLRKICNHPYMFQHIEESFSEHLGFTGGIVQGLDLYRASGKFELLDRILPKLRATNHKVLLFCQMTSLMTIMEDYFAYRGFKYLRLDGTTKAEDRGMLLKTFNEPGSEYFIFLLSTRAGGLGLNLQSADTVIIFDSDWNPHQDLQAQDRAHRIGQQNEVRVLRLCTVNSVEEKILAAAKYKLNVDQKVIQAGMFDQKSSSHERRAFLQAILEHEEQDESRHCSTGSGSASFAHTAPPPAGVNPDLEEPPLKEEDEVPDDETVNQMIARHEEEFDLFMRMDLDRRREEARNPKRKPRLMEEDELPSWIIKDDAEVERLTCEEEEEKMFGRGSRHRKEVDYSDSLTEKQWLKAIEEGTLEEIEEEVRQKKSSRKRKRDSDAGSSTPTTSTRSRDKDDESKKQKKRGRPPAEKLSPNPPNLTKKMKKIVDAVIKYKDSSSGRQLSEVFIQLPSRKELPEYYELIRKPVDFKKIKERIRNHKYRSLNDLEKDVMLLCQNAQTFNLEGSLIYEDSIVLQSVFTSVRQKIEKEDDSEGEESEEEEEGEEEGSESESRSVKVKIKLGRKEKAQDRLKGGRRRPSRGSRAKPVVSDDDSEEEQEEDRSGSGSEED

SMARCA2 [1] = biological target: T2, SMARCA2 (Homo sapiens, UniProt P51531); experiment: MSD SMARCA2 degradation in A549 cell line; design: endogenous in cells; conditions: for SMARCA2 MSD A549 degradation 24 h: Average Dmax % / DC50: A549 cells; for Dmax: A549, A549 cells; for Dmax / DC50: 24 h; for DC50: read-out: SMARCA2 MSD A549 degradation 24 h: Average external-Abs DC50
T2 sequence (P51531 whole entry): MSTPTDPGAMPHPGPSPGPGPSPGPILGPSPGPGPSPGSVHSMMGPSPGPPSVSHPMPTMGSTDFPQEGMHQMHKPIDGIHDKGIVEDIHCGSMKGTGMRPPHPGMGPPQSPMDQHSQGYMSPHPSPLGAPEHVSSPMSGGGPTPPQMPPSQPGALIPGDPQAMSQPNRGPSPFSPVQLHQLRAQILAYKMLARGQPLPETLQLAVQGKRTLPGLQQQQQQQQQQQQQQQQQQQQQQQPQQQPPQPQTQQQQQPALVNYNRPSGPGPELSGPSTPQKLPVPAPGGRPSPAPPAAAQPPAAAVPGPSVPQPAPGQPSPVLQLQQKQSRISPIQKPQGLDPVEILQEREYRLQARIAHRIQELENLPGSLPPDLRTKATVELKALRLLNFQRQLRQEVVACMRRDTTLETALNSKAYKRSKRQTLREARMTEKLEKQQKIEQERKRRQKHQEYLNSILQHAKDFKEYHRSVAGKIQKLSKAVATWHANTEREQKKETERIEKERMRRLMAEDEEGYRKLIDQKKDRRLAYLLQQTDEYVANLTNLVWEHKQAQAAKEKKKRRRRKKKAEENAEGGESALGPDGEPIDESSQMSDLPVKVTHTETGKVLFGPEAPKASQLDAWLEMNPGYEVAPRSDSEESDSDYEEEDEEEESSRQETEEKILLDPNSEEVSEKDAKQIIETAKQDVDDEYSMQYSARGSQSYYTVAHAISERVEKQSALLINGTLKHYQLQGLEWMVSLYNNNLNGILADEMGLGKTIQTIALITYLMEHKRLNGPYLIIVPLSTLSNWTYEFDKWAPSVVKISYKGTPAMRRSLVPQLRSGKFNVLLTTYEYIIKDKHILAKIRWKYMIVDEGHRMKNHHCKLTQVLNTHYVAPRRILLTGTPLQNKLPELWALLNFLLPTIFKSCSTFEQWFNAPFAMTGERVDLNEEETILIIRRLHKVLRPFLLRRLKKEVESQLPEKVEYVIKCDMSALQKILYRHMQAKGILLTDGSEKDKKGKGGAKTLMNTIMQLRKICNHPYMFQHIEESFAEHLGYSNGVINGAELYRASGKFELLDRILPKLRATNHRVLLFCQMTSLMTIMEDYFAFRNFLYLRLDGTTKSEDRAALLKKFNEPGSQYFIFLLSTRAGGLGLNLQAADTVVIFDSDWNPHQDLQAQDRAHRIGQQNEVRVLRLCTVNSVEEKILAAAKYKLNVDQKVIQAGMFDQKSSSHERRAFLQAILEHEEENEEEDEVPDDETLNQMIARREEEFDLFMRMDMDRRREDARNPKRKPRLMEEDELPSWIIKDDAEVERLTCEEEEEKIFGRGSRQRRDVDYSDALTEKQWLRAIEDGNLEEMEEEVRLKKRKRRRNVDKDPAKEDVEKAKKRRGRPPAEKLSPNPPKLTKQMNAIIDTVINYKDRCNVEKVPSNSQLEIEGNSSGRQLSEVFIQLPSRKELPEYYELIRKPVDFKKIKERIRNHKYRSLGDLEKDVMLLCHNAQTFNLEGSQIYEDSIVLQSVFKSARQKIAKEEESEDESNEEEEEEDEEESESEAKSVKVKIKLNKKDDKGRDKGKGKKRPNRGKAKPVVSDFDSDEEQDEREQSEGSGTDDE
How it was run: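 A549 cells treated 24 h with compound, 3-fold series 1000 nM down to 0.152 nM plus DMSO. RIPA lysates captured on MSD plates, probed with rabbit anti-SMARCA2/BRM (1 µg/ml) then SULFO-TAG anti-rabbit, electrochemiluminescence read. DC50 and 24 h Dmax reported as letter bins.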

SMARCA2 [2] = biological target: T2, SMARCA2; experiment: SMARCA2 Western blot MV4-11 degradation; design: SMARCA2 and SMARCA4 protein degradation in MV4-11 cells; endogenous in cells; host or cells: MV4-11; conditions: for SMARCA2 MSD MV411 degradation 24 h: average Dmax % / DC50: MV4-11 cells; for DC50 / Dmax: 24 h; for DC50: read-out: SMARCA2 MSD MV411 degradation 24 h: Mean external-Abs DC50; for Dmax: MV4-11, MV4-11 cells, read-out: SMARCA2 MSD MV411 degradation 24 h: average Dmax %

Compound	SMARCA4 MSD MV411 degradation 24 h: average Dmax % (SMARCA4)	DC50 (SMARCA4) [nM]	SMARCA2 MSD A549 degradation 24 h: Average Dmax % (SMARCA2 [1])	SMARCA2 MSD MV411 degradation 24 h: average Dmax % (SMARCA2 [2])	DC50 (SMARCA2 [2]) [nM]	Dmax (SMARCA4) [%]	Dmax (SMARCA2 [1]) [%]	Dmax (SMARCA2 [2]) [%]	DC50 (SMARCA2 [1]) [nM]
Cc1n[nH]c(C)c1-c1ccc(CNC(=O)[C@@H]2C[C@@H](O)CN2C(=O)[C@@H](NC(=O)[C@H]2CC3(C2)C[C@H](N2CCC(c4cnc(N5C6CCC5CN(c5cc(-c7ccccc7O)nnc5N)C6)nc4)CC2)C3)C(C)(C)C)cc1 (stereo partly drawn) [I-32, (2S,4R)-1-((2S)-2-(6-(4-(2-(3-(3-amino-6-(2-hydroxyphenyl)pyridazin-4-yl)-3,8-diazabicyclo[3.2.1]octan-8-yl)pyrimidin-5-yl)piperidin-1-yl)spiro[3.3]heptane-2-carboxamido)-3,3-dimethylbutanoyl)-N-(4-(3,5-dimethyl-1H-pyrazol-4-yl)benzyl)-4-hydroxypyrrolidine-2-carboxamide]	D (D (<50% degradation))	> 1000	D (D (<50% degradation))	D (D (<50% degradation))	100 to 500	–	–	–	–
Cc1nccn1-c1ccc(CNC(=O)[C@@H]2C[C@@H](O)CN2C(=O)[C@@H](NC(=O)[C@H]2CC3(C2)C[C@H](N2CCC(c4cnc(N5C6CCC5CN(c5cc(-c7ccccc7O)nnc5N)C6)nc4)CC2)C3)C(C)(C)C)cc1 (stereo partly drawn) [I-33, (2S,4R)-1-((2S)-2-(6-(4-(2-(3-(3-amino-6-(2-hydroxyphenyl)pyridazin-4-yl)-3,8-diazabicyclo[3.2.1]octan-8-yl)pyrimidin-5-yl)piperidin-1-yl)spiro[3.3]heptane-2-carboxamido)-3,3-dimethylbutanoyl)-4-hydroxy-N-(4-(2-methyl-1H-imidazol-1-yl)benzyl)pyrrolidine-2-carboxamide]	–	> 1000	–	–	100 to 500	< 50	< 50	< 50	–
Cn1nccc1-c1ccc(CNC(=O)[C@@H]2C[C@@H](O)CN2C(=O)[C@@H](NC(=O)[C@H]2CC3(C2)C[C@H](N2CCC(c4cnc(N5C6CCC5CN(c5cc(-c7ccccc7O)nnc5N)C6)nc4)CC2)C3)C(C)(C)C)cc1 (stereo partly drawn) [I-35, (2S,4R)-1-((2S)-2-(6-(4-(2-(3-(3-amino-6-(2-hydroxyphenyl)pyridazin-4-yl)-3,8-diazabicyclo[3.2.1]octan-8-yl)pyrimidin-5-yl)piperidin-1-yl)spiro[3.3]heptane-2-carboxamido)-3,3-dimethylbutanoyl)-4-hydroxy-N-(4-(1-methyl-1H-pyrazol-5-yl)benzyl)pyrrolidine-2-carboxamide]	–	> 1000	–	–	< 100	50 to 70	70 to 90	70 to 90	100 to 500
Cn1nccc1-c1ccc(CNC(=O)[C@@H]2C[C@@H](O)CN2C(=O)[C@@H](NC(=O)[C@H]2CC3(C2)C[C@H](N2CCC(c4cnc(N5C6CCC5CN(c5cc(-c7ccccc7O)nnc5N)C6)nc4)CC2)C3)C(C)(C)C)cc1 (stereo partly drawn) [I-36, (2S,4R)-1-((2S)-2-(6-(4-(2-(3-(3-amino-6-(2-hydroxyphenyl)pyridazin-4-yl)-3,8-diazabicyclo[3.2.1]octan-8-yl)pyrimidin-5-yl)piperidin-1-yl)spiro[3.3]heptane-2-carboxamido)-3,3-dimethylbutanoyl)-4-hydroxy-N-(4-(1-methyl-1H-pyrazol-5-yl)benzyl)-pyrrolidine-2-carboxamide]	D (D (<50% degradation))	> 1000	B (B (>70-90% o degradation))	B (B (>70-90% degradation))	< 100	–	–	–	100 to 500
Cc1ncsc1-c1ccc(CNC(=O)[C@@H]2C[C@@H](O)CN2C(=O)[C@@H](NC(=O)CN(C)Cc2cnc(N3C4CCC3CN(c3cc(-c5ccccc5O)nnc3N)C4)nc2)C(C)(C)C)cc1 [I-37, (2S,4R)-1-((2S)-2-(2-(((2-(3-(3-amino-6-(2-hydroxyphenyl)pyridazin-4-yl)-3,8-diazabicyclo[3.2.1]octan-8-yl)pyrimidin-5-yl)methyl)(methyl)amino)acetamido)-3,3-dimethylbutanoyl)-4-hydroxy-N-(4-(4-methylthiazol-5-yl)benzyl)pyrrolidine-2-carboxamide]	–	< 100	–	–	< 100	> 90	> 90	> 90	501 to 1000
Cc1ncsc1-c1ccc(CNC(=O)[C@@H]2C[C@@H](O)CN2C(=O)[C@@H](NC(=O)C2CC3(C2)CC(N2CCC(Oc4cc(N5C6CCC5CN(c5cc(-c7ccccc7O)nnc5N)C6)ccn4)CC2)C3)C(C)(C)C)cc1 (stereo partly drawn) [I-38, (2S,4R)-1-((2S)-2-(6-(4-((4-(3-(3-amino-6-(2-hydroxyphenyl)pyridazin-4-yl)-3,8-diazabicyclo[3.2.1]octan-8-yl)pyridin-2-yl)oxy)piperidin-1-yl)spiro[3.3]heptane-2-carboxamido)-3,3-dimethylbutanoyl)-4-hydroxy-N-(4-(4-methylthiazol-5-yl)benzyl)pyrrolidine-2-carboxamide]	–	> 1000	–	–	> 1000	> 90	70 to 90	< 50	> 1000
Cc1ncsc1-c1ccc(CNC(=O)[C@@H]2C[C@@H](O)CN2C(=O)[C@@H](NC(=O)[C@H]2CC3(C2)C[C@H](N2CCC(Oc4ccc(N5C6CCC5CN(c5cc(-c7ccccc7O)nnc5N)C6)cn4)CC2)C3)C(C)(C)C)cc1 (stereo partly drawn) [I-39, (2S,4R)-1-((2S)-2-(6-(4-((5-(3-(3-amino-6-(2-hydroxyphenyl)pyridazin-4-yl)-3,8-diazabicyclo[3.2.1]octan-8-yl)pyridin-2-yl)oxy)piperidin-1-yl)spiro[3.3]heptane-2-carboxamido)-3,3-dimethylbutanoyl)-4-hydroxy-N-(4-(4-methylthiazol-5-yl)benzyl)pyrrolidine-2-carboxamide]	–	> 1000	–	–	100 to 500	> 90	50 to 70	70 to 90	> 1000
Cc1ncsc1-c1ccc(CNC(=O)[C@@H]2C[C@@H](O)CN2C(=O)[C@@H](NC(=O)[C@H]2CC3(C2)C[C@H](N2CCC(Oc4ccc(N5C6CCC5CN(c5cc(-c7ccccc7O)nnc5N)C6)cn4)CC2)C3)C(C)(C)C)cc1 (stereo partly shown) [I-40]	A (A (>90% degradation))	> 1000	B (B (>70-90% o degradation))	B (B (>70-90% degradation))	< 100	–	–	–	> 1000
Cc1ncsc1-c1ccc(CNC(=O)[C@@H]2C[C@@H](O)CN2C(=O)[C@@H](NC(=O)C2CC3(C2)CC(N2CCC(COc4ccc(N5C6CCC5CN(c5cc(-c7ccccc7O)nnc5N)C6)cn4)CC2)C3)C(C)(C)C)cc1 (stereo partly drawn) [I-41, (2S,4R)-1-((2S)-2-(6-(4-(((5-(3-(3-amino-6-(2-hydroxyphenyl)pyridazin-4-yl)-3,8-diazabi-cyclo[3.2.1]octan-8-yl)pyridin-2-yl)oxy)methyl)piperidin-1-yl)spiro[3.3]heptane-2-carbox-amido)-3,3-dimethylbutanoyl)-4-hydroxy-N-(4-(4-methylthiazol-5-yl)benzyl)pyrrolidine-2-carboxamide]	–	> 1000	–	–	> 1000	> 90	50 to 70	< 50	> 1000
Cc1ncsc1-c1ccc(CNC(=O)[C@@H]2C[C@@H](O)CN2C(=O)[C@@H](NC(=O)[C@H]2CCC3(CC2)C[C@H](N2CCC(c4cnc(N5C6CCC5CN(c5cc(-c7ccccc7O)nnc5N)C6)nc4)CC2)C3)C(C)(C)C)cc1 (stereo partly drawn) [I-42, (2S,4R)-1-((2S)-2-(2-(4-(2-(3-(3-amino-6-(2-hydroxyphenyl)pyridazin-4-yl)-3,8-diazabicyclo[3.2.1]octan-8-yl)pyrimidin-5-yl)piperidin-1-yl)spiro[3.5]nonane-7-carboxamido)-3,3-dimethylbutanoyl)-4-hydroxy-N-(4-(4-methylthiazol-5-yl)benzyl)pyrrolidine-2-carboxamide]	–	> 1000	–	–	< 100	< 50	70 to 90	70 to 90	100 to 500
Cc1ncsc1-c1ccc(CNC(=O)[C@@H]2C[C@@H](O)CN2C(=O)[C@@H](NC(=O)[C@H]2CCC3(CC2)C[C@H](N2CCC(c4cnc(N5C6CCC5CN(c5cc(-c7ccccc7O)nnc5N)C6)nc4)CC2)C3)C(C)(C)C)cc1 (stereo partly drawn) [I-43, (2S,4R)-1-((2S)-2-(2-(4-(2-(3-(3-amino-6-(2-hydroxyphenyl)pyridazin-4-yl)-3,8-diazabicyclo[3.2.1]octan-8-yl)pyrimidin-5-yl)piperidin-1-yl)spiro[3.5]nonane-7-carboxamido)-3,3-dimethylbutanoyl)-4-hydroxy-N-(4-(4-methylthiazol-5-yl)benzyl)-pyrrolidine-2-carboxamide]	–	> 1000	–	–	< 100	–	–	–	100 to 500
